In patent US20250195521A1 (Revolution Medicines, Inc., priority 2020, published 2025) one finds IC50 data, which are given here for nine molecules.

Structures are written as SMILES. Read-outs that look alike come from different tables or passages of the source. Where only a bound is given, the exact number is not on record here.

The term IC50 denotes the concentration at which inhibition is half-maximal.

Test [1] addresses K-Ras G12C(GMP-PNP) binding to BRAF RBD (Homo sapiens (Human), UniProt P01116+P62937, G12C). As to the kind of experiment: Disruption of BRAF RBD interaction with K-Ras (FRET / MOA assay), K-Ras G12C. It counts as biochemical. The note with it: read-out: KRAS G12C FRET IC50. Put shortly: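 Cpd 10-pt 3-fold dilution, top 30 μM final; Ras/CypA/BRAF RBD mix 3 h, 25° C. Add anti-His Eu-W1024 10 nM + anti-GST APC 50 nM final, 1.5 h. Readout TR-FRET ratio decrease vs DMSO → IC50.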

Test [2] has as its system Capan-1 cells (K-Ras G12V). As to the kind of experiment: CellTiter-Glo cell viability, Capan-1. In kind it is cell-based, human. The note with it: K-Ras G12V, 5-day treatment, read-out: Capan-1 Cell Viability IC50. The method in brief:
(§1)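 Viability is read as luminescence after five days of compound exposure, with plates first equilibrated to room temperature for roughly 30 minutes. Each signal is expressed as a percentage of the mean DMSO control, and curves are fitted by four-parameter logistic regression.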

In another test the target is KRAS G12C (Homo sapiens (Human), UniProt P01116+P62937, G12C). As to the kind of experiment: Ras-Raf disruption/FRET/MOA assay (BRAF RBD, Cyclophilin A). In kind it is biochemical. The settings on record: read-out: KRAS G12C FRET IC50. Put shortly:
(§2)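 TR-FRET readout: anti-His Eu-W1024 (10 nM) and anti-GST allophycocyanin (50 nM) added after 3 h, 25° C compound incubation, then 1.5 h more. Decrease in FRET ratio versus DMSO wells marks Ras:RAF disruption; IC50 reported.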

Another test concerns the target KRAS G13C (Homo sapiens (Human), UniProt P01116+P62937, G13C). Described as above. In kind it is biochemical. The note with it: read-out: KRAS G13C FRET IC50. The method in brief: as §2
Another test concerns the target KRAS G12V (Homo sapiens (Human), UniProt P01116+P62937, G12V). Described as above. In kind it is biochemical. The settings on record: read-out: KRAS G12V FRET IC50. Put shortly:
as §2

Another test deals with KRAS G12D (Homo sapiens (Human), UniProt P01116+P62937, G12D). Described as above. In kind it is biochemical. The settings on record: read-out: KRAS G12D FRET IC50. The method in brief: as §2
For the next test, the target named is KRAS G12S (Homo sapiens (Human), UniProt P01116+P62937, G12S). The test is described as above. In kind it is biochemical. The note with it: read-out: KRAS G12S FRET IC50. The method in brief:
as §2

Test [3] relates to NCI-H358 cells (K-Ras G12C). As to the kind of experiment: CellTiter-Glo cell viability, NCI-H358. In kind it is cell-based, human. The note with it: K-Ras G12C, 5-day treatment; read-out: H358 Cell Viability IC50. The method in brief:
as §1

In another test the target is NRAS G12C (Homo sapiens (Human), UniProt P01111+P62937, G12C). As to the kind of experiment: Ras-Raf disruption/FRET/MOA assay (BRAF RBD, Cyclophilin A). The settings on record: read-out: NRAS G12C FRET data IC50. In kind it is biochemical. Put shortly:
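Ras-GMPPNP (12.5 nM), BRAF RBD (50 nM) and 25 μM Cyclophilin A were incubated with compound for 3 h at 25° C, then detected 1.5 h with anti-His Eu and anti-GST APC; IC50 values follow from the reduced TR-FRET ratio.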

In the next test the target is KRAS WT (Homo sapiens (Human), UniProt P01116+P62937). Described as above. The settings on record: read-out: KRAS WT FRET data IC50. In kind it is biochemical. Put shortly: as §2
The next test addresses KRAS G13D (Homo sapiens (Human), UniProt P01116+P62937, G13D). Described as above. It counts as biochemical. The settings on record: read-out: KRAS G13D FRET data IC50. The method in brief:
as §2

K-Ras G12C(GMP-PNP) binding to BRAF RBD, sequence (P01116 other isoform, or with tags, fused parts or gaps G12C): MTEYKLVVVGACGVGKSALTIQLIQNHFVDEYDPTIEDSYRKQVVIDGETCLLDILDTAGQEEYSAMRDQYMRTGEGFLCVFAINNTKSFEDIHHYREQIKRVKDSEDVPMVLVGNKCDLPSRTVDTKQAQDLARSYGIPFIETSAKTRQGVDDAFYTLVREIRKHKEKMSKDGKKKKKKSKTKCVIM
K-Ras G12C(GMP-PNP) binding to BRAF RBD, sequence (P62937 whole entry): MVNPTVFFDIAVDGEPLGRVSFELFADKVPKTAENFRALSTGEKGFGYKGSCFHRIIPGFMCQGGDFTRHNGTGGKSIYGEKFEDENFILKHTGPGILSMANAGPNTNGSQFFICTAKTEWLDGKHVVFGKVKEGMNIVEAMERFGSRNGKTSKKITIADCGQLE
KRAS G12S, sequence (P01116 other isoform, or with tags, fused parts or gaps G12S): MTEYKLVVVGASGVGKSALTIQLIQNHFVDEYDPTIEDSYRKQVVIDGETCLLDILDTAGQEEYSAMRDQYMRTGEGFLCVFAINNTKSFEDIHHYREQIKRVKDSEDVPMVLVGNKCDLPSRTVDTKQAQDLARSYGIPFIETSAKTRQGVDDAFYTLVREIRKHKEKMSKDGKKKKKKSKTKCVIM
KRAS G12S, sequence (P62937 whole entry): as the sequence (P62937 whole entry) above
KRAS G12D, sequence (P01116 other isoform, or with tags, fused parts or gaps G12D): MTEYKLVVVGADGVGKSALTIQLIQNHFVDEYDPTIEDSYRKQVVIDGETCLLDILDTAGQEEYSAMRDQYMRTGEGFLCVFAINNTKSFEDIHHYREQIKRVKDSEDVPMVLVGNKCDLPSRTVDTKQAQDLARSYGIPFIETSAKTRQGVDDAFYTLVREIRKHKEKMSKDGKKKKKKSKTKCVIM
KRAS G12D, sequence (P62937 whole entry): as the sequence (P62937 whole entry) above
KRAS G12V, sequence (P01116 other isoform, or with tags, fused parts or gaps G12V): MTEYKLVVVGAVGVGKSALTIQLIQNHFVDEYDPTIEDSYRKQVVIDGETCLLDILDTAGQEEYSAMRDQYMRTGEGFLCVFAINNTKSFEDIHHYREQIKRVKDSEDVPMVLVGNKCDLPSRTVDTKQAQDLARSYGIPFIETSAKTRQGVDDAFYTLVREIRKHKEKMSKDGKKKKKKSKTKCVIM
KRAS G12V, sequence (P62937 whole entry): as the sequence (P62937 whole entry) above
KRAS G12C, sequence (P01116-2 other isoform, or with tags, fused parts or gaps G12C): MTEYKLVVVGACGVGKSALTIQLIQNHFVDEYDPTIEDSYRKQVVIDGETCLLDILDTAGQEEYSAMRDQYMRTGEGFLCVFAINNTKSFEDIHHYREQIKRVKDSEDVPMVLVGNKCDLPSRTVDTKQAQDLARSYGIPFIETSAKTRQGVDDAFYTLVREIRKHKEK
KRAS G12C, sequence (P62937 whole entry): as the sequence (P62937 whole entry) above
NRAS G12C, sequence (P01111 whole entry G12C): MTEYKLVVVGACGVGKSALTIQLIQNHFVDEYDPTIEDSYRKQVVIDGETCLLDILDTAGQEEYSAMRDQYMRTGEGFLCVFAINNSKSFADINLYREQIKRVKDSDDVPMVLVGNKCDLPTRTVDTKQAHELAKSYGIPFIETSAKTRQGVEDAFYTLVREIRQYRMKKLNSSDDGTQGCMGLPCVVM
NRAS G12C, sequence (P62937 whole entry): as the sequence (P62937 whole entry) above
KRAS WT, sequence (P01116 other isoform, or with tags, fused parts or gaps): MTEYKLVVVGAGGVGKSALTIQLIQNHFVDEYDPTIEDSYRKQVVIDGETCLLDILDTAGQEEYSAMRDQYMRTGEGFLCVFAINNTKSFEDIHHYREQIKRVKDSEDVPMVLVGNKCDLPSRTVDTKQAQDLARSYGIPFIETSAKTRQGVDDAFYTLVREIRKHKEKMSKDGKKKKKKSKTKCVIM
KRAS WT, sequence (P62937 whole entry): as the sequence (P62937 whole entry) above
KRAS G13D, sequence (P01116 other isoform, or with tags, fused parts or gaps G13D): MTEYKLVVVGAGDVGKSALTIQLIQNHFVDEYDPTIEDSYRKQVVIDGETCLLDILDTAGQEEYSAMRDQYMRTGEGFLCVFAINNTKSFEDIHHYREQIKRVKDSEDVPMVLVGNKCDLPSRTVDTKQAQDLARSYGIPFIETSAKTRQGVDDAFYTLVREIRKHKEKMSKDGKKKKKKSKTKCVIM
KRAS G13D, sequence (P62937 whole entry): as the sequence (P62937 whole entry) above
KRAS G13C, sequence (P01116 other isoform, or with tags, fused parts or gaps G13C): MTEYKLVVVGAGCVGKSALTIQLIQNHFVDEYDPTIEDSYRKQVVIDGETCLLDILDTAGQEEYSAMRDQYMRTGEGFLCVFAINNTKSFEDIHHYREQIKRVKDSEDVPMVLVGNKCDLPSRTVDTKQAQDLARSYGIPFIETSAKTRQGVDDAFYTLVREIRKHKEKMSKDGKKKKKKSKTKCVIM
KRAS G13C, sequence (P62937 whole entry): as the sequence (P62937 whole entry) above

In the case of `CCn1c(-c2cc(N3CCN(C)CC3)cnc2[C@H](C)OC)c2c3cc(ccc31)-c1nc(co1)C[C@H](NC(=O)[C@H]1[C@H](C)[C@@H]1C)C(=O)N1CCC[C@H](N1)C(=O)OCC(C)(C)C2` [Compound A391, (1r,2R,3S)—N-((6^3S,4S,Z)-1^1-ethyl-1^2-(2-((S)-1-methoxyethyl)-5-(4-methylpiperazin-1-yl)pyridin-3-yl)-10,10-dimethyl-5,7-dioxo-6^1,6^2,6^3,6^4,6^5,6^6-hexahydro-1^1H-8-oxa-2 (2,4)-oxazola-1 (5,3)-indola-6 (1,3)-pyridazinacycloundecaphane-4-yl)-2,3-dimethylcyclopropane-1-carboxamide], the IC50 in test [1] was less than 10 nM; in test [2], 1000 to 10000 nM; at KRAS G12C, 10 to 100 nM; at KRAS G13C, 10 to 100 nM; at KRAS G12V, 10 to 100 nM; on KRAS G12D it was 10 to 100 nM. In addition, the IC50 (at KRAS G12S; in test [3]) was 10 to 100 nM throughout.
In the case of `CCn1c(-c2cccnc2[C@H](C)OC)c2c3cc(ccc31)-c1cc(O)cc(c1)C[C@H](NC(=O)[C@H](C(C)C)N(C)C(=O)C1CN3CCCN1CC3)C(=O)N1CCC[C@H](N1)C(=O)OCC(C)(C)C2` (stereo partly shown) [Compound A404], the IC50 in test [1] was 100 to 1000 nM; in test [2] (Homo sapiens, CAPAN-1, 120 h), greater than 10000 nM; on NRAS G12C, 100 to 1000 nM; at KRAS WT, 100 to 1000 nM; at KRAS G13D, 100 to 1000 nM; on KRAS G12C, 100 to 1000 nM. Moreover, the IC50 on KRAS G13C was in the range of 100 to 1000 nM; at KRAS G12V, 1000 to 10000 nM; on KRAS G12D, 100 to 1000 nM; at KRAS G12S it was 100 to 1000 nM.
Consider `CCO[C@@H]1c2nc(cs2)-c2ccc3c(c2)c(c(-c2cc(C4CCN(C5COC5)CC4)cnc2[C@H](C)OC)n3CC)CC(C)(C)COC(=O)[C@@H]2CCCN(N2)C(=O)[C@H]1NC(=O)[C@H]1[C@H](C)[C@@H]1C` [Compound A449, (1r,2R,3S)—N-((6^3S,3S,4S,Z)-3-ethoxy-1^1-ethyl-1^2-(2-((S)-1-methoxyethyl)-5-(1-(oxetan-3-yl)piperidin-4-yl)pyridin-3-yl)-10,10-dimethyl-5,7-dioxo-6^1,6^2,6^3,6^4,6^5,6^6-hexahydro-1^1H-8-oxa-2 (4,2)-thiazola-1 (5,3)-indola-6 (1,3)-pyridazinacycloundecaphane-4-yl)-2,3-dimethylcyclopropane-1-carboxamide], for which the IC50 lay in the range of 100 to 1000 nM in [1]; 100 to 1000 nM in test [2]; 100 to 1000 nM on KRAS G12C; 100 to 1000 nM on KRAS G13C; 1000 to 10000 nM at KRAS G12V; 1000 to 10000 nM at KRAS G12D. The IC50 lay within 1000 to 10000 nM at KRAS G12S and 100 to 1000 nM in [3].
Regarding `CCn1c(-c2cccnc2[C@H](C)OC)c2c3cc(ccc31)-c1csc(n1)[C@@H](OCC1CCN(C)CC1)[C@H](NC(=O)[C@H]1C[C@@H]1C)C(=O)N1CCC[C@H](N1)C(=O)OCC(C)(C)C2` [Compound A451, (1S,2S)—N-((6^3S,3S,4S,Z)-1^1-ethyl-1^2-(2-((S)-1-methoxyethyl)pyridin-3-yl)-10,10-dimethyl-3-((1-methylpiperidin-4-yl)methoxy)-5,7-dioxo-6^1,6^2,6^3,6^4,6^5,6^6-hexahydro-1^1H-8-oxa-2 (4,2)-thiazola-1 (5,3)-indola-6 (1,3)-pyridazinacycloundecaphane-4-yl)-2-methylcyclopropane-1-carboxamide], the IC50 in test [1] was 100 to 1000 nM; in test [2] it was 10 to 100 nM; at KRAS G12C it was 100 to 1000 nM; at KRAS G13C, 100 to 1000 nM; at KRAS G12V, 100 to 1000 nM; at KRAS G12D it was 1000 to 10000 nM. Besides, the IC50 at KRAS G12S lay within 100 to 1000 nM; in test [3], 10 to 100 nM.
As to `CCn1c(-c2cccnc2[C@H](C)OC)c2c3cc(ccc31)-c1csc(n1)C[C@H](NC(=O)[C@H](C(C)C)N(C)C(=O)N1CC[C@H]1CN)C(=O)N1CCC[C@H](N1)C(=O)OCC(C)(C)C2` [Compound A463], the IC50 in [1] lay within 10 to 100 nM; in test [2] (Homo sapiens, CAPAN-1, 120 h), 1000 to 10000 nM; at NRAS G12C, 100 to 1000 nM; at KRAS WT, 100 to 1000 nM; on KRAS G13D it was 100 to 1000 nM; on KRAS G12C, 100 to 1000 nM. Moreover, the IC50 at KRAS G13C, on KRAS G12V, at KRAS G12D and on KRAS G12S was 100 to 1000 nM in each case.
On to `CCn1c(-c2cccnc2[C@H](C)OC)c2c3cc(ccc31)-c1csc(n1)C[C@H](NC(=O)[C@H](C(C)C)N(C)C(=O)N1CC[C@]3(CCNC3=O)C1)C(=O)N1CCC[C@H](N1)C(=O)OCC(C)(C)C2` [Compound A479], for which the IC50 in [1] is less than 10 nM; in [2] (Homo sapiens, CAPAN-1, 120 h), 1000 to 10000 nM; at NRAS G12C it was 100 to 1000 nM; on KRAS WT it was 1000 to 10000 nM; at KRAS G13D, 1000 to 10000 nM; at KRAS G12C, 100 to 1000 nM. Moreover, the IC50 on KRAS G13C, at KRAS G12V, on KRAS G12D and at KRAS G12S was 1000 to 10000 nM throughout.
Take `CCOC1c2nc(cs2)-c2ccc3c(c2)c(c(-c2cc(C4CC5COCC(C4)N5C4CC4)cnc2C(C)OC)n3CC)CC(C)(C)COC(=O)C2CCCN(N2)C(=O)C1NC(=O)C1C(C)C1C` [Compound A483, (1r,2R,3S)—N-((6^3S,3S,4S,Z)-12-(5-((1R,5S,7s)-9-cyclopropyl-3-oxa-9-azabicyclo[3.3.1]nonan-7-yl)-2-((S)-1-methoxyethyl)pyridin-3-yl)-3-ethoxy-1^1-ethyl-10,10-dimethyl-5,7-dioxo-6^1,6^2,6^3,6^4,6^5,6^6-hexahydro-1^1H-8-oxa-2 (4,2)-thiazola-1 (5,3)-indola-6 (1,3)-pyridazinacycloundecaphane-4-yl)-2,3-dimethylcyclopropane-1-carboxamide]: the IC50 fell in the range of 100 to 1000 nM in test [1]; 10 to 100 nM in test [2]; 10 to 100 nM on KRAS G12C; 100 to 1000 nM on KRAS G13C; 100 to 1000 nM at KRAS G12V; 10 to 100 nM on KRAS G12D. For the same molecule, the figures for the IC50 (on KRAS G12S; in test [3]) were 10 to 100 nM and less than 10 nM, respectively.
`CCn1c(-c2cccnc2[C@H](C)OC)c2c3cc(ccc31)-c1csc(n1)C[C@H](NC(=O)[C@H](C(C)C)N(C)C(=O)N1CCC13CCS(=O)(=O)CC3)C(=O)N1CCC[C@H](N1)C(=O)OCC(C)(C)C2` [Compound A530]: the IC50 was in the range of 100 to 1000 nM in test [1]; 100 to 1000 nM in test [2] (Homo sapiens, CAPAN-1, 120 h); 100 to 1000 nM at NRAS G12C; 100 to 1000 nM at KRAS WT; 1000 to 10000 nM at KRAS G13D; 100 to 1000 nM at KRAS G12C. For the same molecule, the IC50 lay in the range of 100 to 1000 nM on KRAS G13C, 100 to 1000 nM on KRAS G12V, 1000 to 10000 nM at KRAS G12D and 100 to 1000 nM at KRAS G12S.
For `CCn1c(-c2cccnc2[C@H](C)OC)c2c3cc(ccc31)-c1csc(n1)C[C@H](NC(=O)[C@H](C(C)C)N(C)C(=O)N1CC[C@@H]1CN)C(=O)N1CCC[C@H](N1)C(=O)OCC(C)(C)C2` [Compound A558], the IC50 in test [1] was 10 to 100 nM; in test [2] (Homo sapiens, CAPAN-1, 120 h), 100 to 1000 nM; on NRAS G12C, 10 to 100 nM; on KRAS WT it was 10 to 100 nM; on KRAS G13D, 10 to 100 nM; on KRAS G12C, 10 to 100 nM. For the same molecule, the IC50 is 100 to 1000 nM on KRAS G13C, 100 to 1000 nM on KRAS G12V, 100 to 1000 nM on KRAS G12D and 10 to 100 nM on KRAS G12S.
